Experiments:
Assay type in all cases: cell-based
[1] = test system: Ishikawa (K-Ras wild type cell line); assay: Viability assay (CellTiterBlue, 72 hr) Ishikawa; conditions: Homo sapiens, GI50, CellTiterBlue, Ishikawa K-Ras wild-type
Summary of the method: (§1)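 Cells were seeded at 1000 per well and allowed 18 hr at 37 °C in CO2 before compound addition (final DMSO 0.5%). After 72 hr exposure, CellTiterBlue was added for 3 hr and fluorescence read at Ex550/Em590. GI50 values were calculated against DMSO (100%) and 100 uM tamoxifen (0%) controls.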

[2] = test system: Panc10.05-G12D; assay: Viability assay (CellTiterBlue, 72 hr) Panc10.05; conditions: Homo sapiens, Panc1005, GI50, CellTiterBlue, Panc10.05 K-Ras G12D, read-out: 72 hr Cell Viability Panc10.05 (G12D)
Summary of the method: as §1

[3] = test system: phospho-ERK in HCC827 (Wild-type); assay: In-Cell Western phospho-ERK, HCC827; conditions: Homo sapiens, 1 h; HCC827, one hour treatment; read-out: In-Cell Western HCC827 (Wild-type) Erk (P)
Summary of the method: (§2)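 Following an 18 hr settle at 37° C, seeded cells receive test compound for 1 hr before fixation and staining with phospho-Akt and phospho-ERK primary antibodies (overnight, 4° C) plus a goat anti-rabbit secondary. Plates are imaged and fluorescence quantitated to give EC50.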

[4] = test system: Panc1-G12D; assay: Viability assay (CellTiterBlue, 72 hr) Panc1; conditions: Homo sapiens, PANC-1, GI50, CellTiterBlue, Panc1 K-Ras G12D, read-out: 72 hr Cell Viability Panc1 (G12D)
Summary of the method: as §1

[5] = test system: HCT116-G31D; assay: Viability assay (CellTiterBlue, 72 hr) HCT116; conditions: Homo sapiens, HCT-116, GI50, CellTiterBlue, HCT116 K-Ras G13D, read-out: 72 hr Cell Viability HCT116 (G13D)
Summary of the method: as §1

[6] = test system: HCC827 (K-Ras wild type cell line); assay: Viability assay (CellTiterBlue, 72 hr) HCC827; conditions: Homo sapiens, GI50, CellTiterBlue, HCC827 K-Ras wild-type
Summary of the method: as §1

[7] = test system: U87-MG (K-Ras wild type cell line); assay: Viability assay (CellTiterBlue, 72 hr) U87-MG; conditions: Homo sapiens, U-87 MG, GI50, CellTiterBlue, U87-MG K-Ras wild-type
Summary of the method: as §1

[8] = test system: phospho-ERK in Panc1 (G12D); assay: In-Cell Western phospho-ERK, Panc1; conditions: Homo sapiens, PANC-1, 1 h; Panc1, one hour treatment; read-out: In-Cell Western Panc1 (G12D) Erk (P)
Summary of the method: as §2

[9] = test system: phospho-Akt in HCC827 (Wild-type); assay: In-Cell Western phospho-Akt, HCC827; conditions: Homo sapiens, 1 h; HCC827, one hour treatment; read-out: In-Cell Western HCC827 (Wild-type) Akt (P)
Procedure: In-cell phosphorylation assays for Erk and Akt were performed on several of the compounds and exemplary results are shown in Table 3 below using HCC827 and A375 cell lines for wild type K-Ras and Panc1 and Panc10.05 cell lines for G12D K-Ras mutants. Results are expressed in μM and corresponding structures are shown in FIGS. 2A-2G and Examples 1-152, above.
Cells are seeded in complete medium into black sided, clear-bottom 384-well microplates at 3000 cells/[…]/well. Plates are returned to 37° C. CO2 incubator for 18 hr. Drug is made as 200× in DMSO and diluted into medium to 10×. To each well is added 4 ul 10× test article or controls, and plates are returned to the incubator. Final assay DMSO concentration is 0.5%. After one hour, cells are fixed in formaldehyde, rinsed & permeabilized with triton X-100, and blocked with BSA/Goat serum blocking solution. Primary phospho-Akt and phospho-ERK antibodies are added and plates are incubated overnight at 4° C. Plates are rinsed with Tween-20 wash buffer and secondary antibody (Goat anti-rabbit, Thermofisher) is added. After 2 hours, plates are rinsed in Tween-20 wash buffer, and then PBS. Plates are imaged on the Celigo (Nexcelom) and cellular fluorescence is quantitated. Full inhibition of phospho-Akt is achieved with 1 uM BEZ235 (Sellekchem), while full inhibition of phospho-ERK is achieved with 1 uM MEK Inhibitor II Calbiochem). EC50 values are calculated using Graphpad Prism.

[10] = test system: phospho-Akt in Panc1 (G12D); assay: In-Cell Western phospho-Akt, Panc1; conditions: Homo sapiens, PANC-1, 1 h; Panc1, one hour treatment; read-out: In-Cell Western Panc1 (G12D) Akt (P)
Summary of the method: as §2

Compound | IC50 [1] | IC50 [2] | EC50 [3] | IC50 [4] | IC50 [5] | IC50 [6] | IC50 [7] | EC50 [8] | EC50 [9] | EC50 [10]
CC(C)c1nn(C)cc1C(=O)Nc1nc(-c2ccc3c(c2)CCC(=O)N3)cs1 [Compound 32, 3-isopropyl-1-methyl-N-(4-(2-oxo-1,2,3,4-tetrahydroquinolin-6-yl)thiazol-2-yl)-1H-pyrazole-4-carboxamide] | > 25 µM | > 25 µM | 20 µM | > 25 µM | > 25 µM | 8 µM | 9 µM | > 25 µM | > 25 µM | 26 µM
Cc1nn(-c2ccccc2)cc1C(=O)Nc1nc(-c2ccc3c(c2)CCC(=O)N3)cs1 [Compound 31, 3-methyl-N-(4-(2-oxo-1,2,3,4-tetrahydroquinolin-6-yl)thiazol-2-yl)-1-phenyl-1H-pyrazole-4-carboxamide] | > 25 µM | > 25 µM | > 25 µM | > 25 µM | > 25 µM | > 25 µM | > 25 µM | > 25 µM | > 25 µM | > 25 µM
Cn1cc(C(=O)Nc2nc(-c3ccc4c(c3)CCC(=O)N4)cs2)c(-c2ccccc2)n1 [Compound 29, 1-methyl-N-(4-(2-oxo-1,2,3,4-tetrahydroquinolin-6-yl)thiazol-2-yl)-3-phenyl-1H-pyrazole-4-carboxamide] | > 25 µM | > 25 µM | 21 µM | > 25 µM | > 25 µM | > 25 µM | > 25 µM | 13 µM | > 25 µM | > 25 µM
CCn1cc(C(=O)Nc2nc(-c3ccc4c(c3)CCC(=O)N4)cs2)c(C(F)(F)F)n1 [Compound 39, 1-ethyl-N-(4-(2-oxo-1,2,3,4-tetrahydroquinolin-6-yl)thiazol-2-yl)-3-(trifluoromethyl)-1-pyrazole-4-carboxamide] | > 25 µM | > 25 µM | > 25 µM | > 25 µM | > 25 µM | > 25 µM | > 25 µM | 28 µM | > 25 µM | > 25 µM
COc1nn(C)cc1C(=O)Nc1nc(-c2ccc3c(c2)CCC(=O)N3)cs1 [Compound 42, 3-methoxy-1-methyl-N-(4-(2-oxo-1,2,3,4-tetrahydroquinolin-6-yl)thiazol-2-yl)-1H-pyrazole-4-carboxamide] | > 25 µM | > 25 µM | > 25 µM | > 25 µM | > 25 µM | > 25 µM | > 25 µM | > 25 µM | > 25 µM | > 25 µM
Cn1cc(C(=O)Nc2nc(-c3ccc4c(c3)CCC(=O)N4)cs2)cn1 [Compound 28, 1-methyl-N-(4-(2-oxo-1,2,3,4-tetrahydroquinolin-6-yl)thiazol-2-yl)-1H-pyrazole-4-carboxamide] | > 25 µM | > 25 µM | 16 µM | > 25 µM | > 25 µM | > 25 µM | > 25 µM | > 25 µM | > 25 µM | > 25 µM
Cn1cc(C(=O)Nc2nc(-c3ccc4c(c3)CCC(=O)N4)cs2)c(C(F)F)n1 [Compound 27, 3-(difluoromethyl)-1-methyl-N-(4-(2-oxo-1,2,3,4-tetrahydroquinolin-6-yl)thiazol-2-yl)-1H-pyrazole-4-carboxamide] | > 25 µM | 16 µM | > 25 µM | > 25 µM | > 25 µM | > 25 µM | > 25 µM | 14 µM | > 25 µM | > 25 µM

— US10344026B2, “Compositions and methods of targeting mutant K-ras” (NANTBIO, INC., priority 2017, dated 2019)
